Source: patent US20260078130A1, “NAMPT MODULATORS, PREPARATIONS, AND USES THEREOF” (SIRONAX LTD., priority 2022, published 2026)
Where two headings read alike, the source gives them in different places.

Experiments:
[1] = test system: endogenous NAMPT in U2OS cells; experiment: Cellular NAD+ modulation assay (NAD/NADH-Glo, U2OS cells); format: cell-based; details: Homo sapiens; for maximal fold induction: read-out: Cellular Emax
Procedure, shortened: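 Endogenous NAMPT stimulation in U2OS cells treated with compound dilution series for 24 h at 37 °C. Cells lysed with DTAB base, acid-treated 15 min at 60 °C, neutralized, NAD+ read by NAD/NADH-Glo luminescence after 40 min at room temperature. EC50 and Emax (fold over DMSO) derived.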

[2] = molecular target: T1, human enzyme NAMPT (full length) (Homo sapiens, UniProt P43490); experiment: NMN fluorescence biochemical assay (stimulation of NMN synthesis by NAMPT); details: for EC50: concentration giving half-maximal activation, read-out: Enzymatic EC50; for Enzymatic Emax: fold change of maximal activation compared to DMSO
T1 construct: human enzyme NAMPT (full length)
T1 sequence (P43490 whole entry): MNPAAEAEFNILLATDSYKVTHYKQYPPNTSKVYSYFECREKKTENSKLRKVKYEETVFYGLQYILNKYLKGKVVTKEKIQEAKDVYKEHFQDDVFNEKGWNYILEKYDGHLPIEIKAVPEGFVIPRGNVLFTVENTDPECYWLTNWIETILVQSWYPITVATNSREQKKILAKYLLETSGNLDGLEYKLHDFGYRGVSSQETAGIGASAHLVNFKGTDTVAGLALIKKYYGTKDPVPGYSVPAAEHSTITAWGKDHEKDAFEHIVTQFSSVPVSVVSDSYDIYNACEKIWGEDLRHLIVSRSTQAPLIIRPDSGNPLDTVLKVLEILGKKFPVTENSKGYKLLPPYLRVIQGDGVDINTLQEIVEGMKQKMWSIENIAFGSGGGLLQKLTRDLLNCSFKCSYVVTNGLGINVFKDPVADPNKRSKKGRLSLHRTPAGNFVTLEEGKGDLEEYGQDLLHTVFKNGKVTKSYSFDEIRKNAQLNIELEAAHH
Procedure, shortened: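 Full-length human NAMPT (100 nM) was preincubated 15 min at 37 °C with compound in 50 mM Tris-HCl pH 7.5, 10 mM MgCl2, 2 mM DTT, then reacted 1 h at 37 °C with 50 μM NAM, 100 μM PRPP, 4 mM ATP (stated solution concentrations). NMN was derivatised with acetophenone/KOH then formic acid and read at Ex/Em 382/445 nm; EC50 and Emax (fold over DMSO) reported.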

[3] = 24 hours incubation, cellular NAD+
[4] = NMN fluorescence assay, purified human NAMPT 100 nM
[5] = 24 hours incubation with compound
[6] = NMN synthesis by purified human NAMPT (100 nM)

Cc1ccnc(C#N)c1CC1c2cc(C#N)ccc2C(=O)N1Cc1ccc2[nH]nnc2c1 (centres unmarked) [Compound 359, 2-((1H-benzo[d][1,2,3]triazol-5-yl)methyl)-3-((2-cyano-4-methylpyridin-3-yl)methyl)-1-oxoisoindoline-5-carbonitrile]
EC50 [1, 3]: 500 to 5000 nM | maximal fold induction [1, 3]: > 1.5 | EC50 [2, 4]: < 500 nM | Enzymatic Emax [2]: B (3≥B>2)

O=C1c2cc(Br)ccc2CN1Cc1ccc(O)cc1 [Compound 19, 6-bromo-2-(4-hydroxybenzyl) isoindolin-1-one]
EC50 [1, 5]: 500 to 5000 nM | maximal fold induction [1, 5]: 1.2 to 1.5 | EC50 [2, 6]: ≥ 5000 nM | Enzymatic Emax [2]: A (A>3)

Cc1ccccc1CC1c2ccccc2C(=O)N1Cc1ccc2[nH]c(=O)oc2c1 (centres unmarked) [Compound 124, 6-((1-(2-methylbenzyl)-3-oxoisoindolin-2-yl)methyl)benzo[d]oxazol-2(3H)-one]
EC50 [1, 5]: 500 to 5000 nM | maximal fold induction [1, 5]: > 1.5 | EC50 [2, 6]: < 500 nM | Enzymatic Emax [2]: A (A>3)

CC(c1ccc(O)cc1)N1Cc2ccccc2C1=O (centres unmarked) [Compound 45, 2-(1-(4-hydroxyphenyl)ethyl) isoindolin-1-one]
EC50 [1, 5]: 500 to 5000 nM | maximal fold induction [1, 5]: 1.2 to 1.5 | EC50 [2, 6]: ≥ 5000 nM | Enzymatic Emax [2]: B (3≥B>2)

N#Cc1cccc(Br)c1CC1c2ccccc2C(=O)N1Cc1ccc2[nH]c(=O)oc2c1 (centres unmarked) [Compound 200, 3-bromo-2-((3-oxo-2-((2-oxo-2,3-dihydrobenzo[d]oxazol-6-yl)methyl)isoindolin-1-yl)methyl)benzonitrile]
EC50 [1, 5]: < 500 nM | maximal fold induction [1, 5]: > 1.5 | EC50 [2, 6]: < 500 nM | Enzymatic Emax [2]: B (3≥B>2)

Cc1ccc(=O)n(C)c1CC1c2ccccc2C(=O)N1CC1CC2(CNC(=O)O2)C1 (centres unmarked) [Compound 493, 2-((1-((1,3-dimethyl-6-oxo-1,6-dihydropyridin-2-yl)methyl)-3-oxoisoindolin-2-yl)methyl)-5-oxa-7-azaspiro[3.4]octan-6-one]
EC50 [1, 3]: 500 to 5000 nM | maximal fold induction [1, 3]: > 1.5 | EC50 [2, 4]: 500 to 5000 nM | Enzymatic Emax [2]: B (3≥B>2)

Cc1nn(C)c(CC2c3ccccc3C(=O)N2Cc2ccc3[nH]nnc3c2)c1Cl (centres unmarked) [Compound 337, 2-((1H-benzo[d][1,2,3]triazol-5-yl)methyl)-3-((4-chloro-1,3-dimethyl-1H-pyrazol-5-yl)methyl)isoindolin-1-one]
EC50 [1, 3]: < 500 nM | maximal fold induction [1, 3]: > 1.5 | EC50 [2, 4]: < 500 nM | Enzymatic Emax [2]: A (A>3)

O=C1NCC2(CC(CN3C(=O)c4ccccc4C3Cc3nnsc3Cl)C2)O1 (centres unmarked) [Compound 538, 2-((1-((5-chloro-1,2,3-thiadiazol-4-yl)methyl)-3-oxoisoindolin-2-yl)methyl)-5-oxa-7-azaspiro[3.4]octan-6-one]
EC50 [1, 3]: 500 to 5000 nM | maximal fold induction [1, 3]: > 1.5 | EC50 [2, 4]: ≥ 5000 nM | Enzymatic Emax [2]: C (2≥C)

Cn1ncc(Cl)c1CC1c2cccc(Cl)c2C(=O)N1Cc1ccc2[nH]nnc2c1 (centres unmarked) [Compound 336, 2-((1H-benzo[d][1,2,3]triazol-5-yl)methyl)-7-chloro-3-((4-chloro-1-methyl-1H-pyrazol-5-yl)methyl)isoindolin-1-one]
EC50 [1, 3]: < 500 nM | maximal fold induction [1, 3]: > 1.5 | EC50 [2, 4]: < 500 nM | Enzymatic Emax [2]: A (A>3)

O=C1c2ccccc2C(Cc2ncccc2Br)N1Cc1cc2oc(=O)[nH]c2cc1F (centres unmarked) [Compound 223, 6-((1-((3-bromopyridin-2-yl)methyl)-3-oxoisoindolin-2-yl)methyl)-5-fluorobenzo[d]oxazol-2(3H)-one]
EC50 [1, 5]: 500 to 5000 nM | maximal fold induction [1, 5]: > 1.5 | EC50 [2, 6]: < 500 nM | Enzymatic Emax [2]: A (A>3)

Cn1ncc(Cl)c1CC1c2ccccc2C(=O)N1Cc1ccc(O)nc1 (centres unmarked) [Compound 578, 3-[(4-chloro-2-methyl-pyrazol-3-yl)methyl]-2-[(6-hydroxy-3-pyridyl)methyl]isoindolin-1-one]
EC50 [1, 3]: 500 to 5000 nM | maximal fold induction [1, 3]: 1.2 to 1.5 | EC50 [2, 4]: ≥ 5000 nM | Enzymatic Emax [2]: B (3≥B>2)

C[C@H]1c2cc(C#N)ccc2C(=O)N1Cc1ccc2[nH]c(=O)oc2c1 (single isomer, unassigned) [Compound 186]
EC50 [1, 5]: 500 to 5000 nM | maximal fold induction [1, 5]: > 1.5 | EC50 [2, 6]: ≥ 5000 nM | Enzymatic Emax [2]: B (3≥B>2)

[2H]C1([2H])NC(=O)OC12CC(CN1C(=O)c3ccccc3C1Cc1c(Cl)cnn1C)C2 (centres unmarked) [Compound 535, 2-((1-((4-chloro-1-methyl-1H-pyrazol-5-yl)methyl)-3-oxoisoindolin-2-yl)methyl)-5-oxa-7-azaspiro[3.4]octan-6-one-8,8-d2]
EC50 [1, 3]: < 500 nM | maximal fold induction [1, 3]: > 1.5 | EC50 [2, 4]: 500 to 5000 nM | Enzymatic Emax [2]: A (A>3)

Cn1ncc(Cl)c1CC1c2cc(OC(F)F)ccc2C(=O)N1Cc1ccc2[nH]nnc2c1 (centres unmarked) [Compound 421, 2-((1H-benzo[d][1,2,3]triazol-5-yl)methyl)-3-((4-chloro-1-methyl-1H-pyrazol-5-yl)methyl)-5-(difluoromethoxy)isoindolin-1-one]
EC50 [1, 3]: < 500 nM | maximal fold induction [1, 3]: > 1.5 | EC50 [2, 4]: < 500 nM | Enzymatic Emax [2]: B (3≥B>2)

O=C1CCc2ccccc2N1Cc1ccc(O)cc1 [Compound 3, 1-(4-hydroxybenzyl)-3,4-dihydroquinolin-2(1H)-one]
EC50 [1, 5]: 5000 to 50000 nM | maximal fold induction [1, 5]: 1.2 to 1.5 | EC50 [2, 6]: ≥ 5000 nM | Enzymatic Emax [2]: B (3≥B>2)

O=C1c2ccc(Nc3ccccc3)cc2C(=O)N1Cc1ccc(O)cc1 [Compound 15, 2-(4-hydroxybenzyl)-5-(phenylamino)isoindoline-1,3-dione]
EC50 [1, 5]: < 500 nM | maximal fold induction [1, 5]: ≤ 1.2 | EC50 [2, 6]: 500 to 5000 nM | Enzymatic Emax [2]: B (3≥B>2)

C[C@H]1c2ccccc2C(=O)N1Cc1ccc2[nH]c(=O)oc2c1 [Compound 56, (S)-6-((1-methyl-3-oxoisoindolin-2-yl)methyl)benzo[d]oxazol-2(3H)-one]
EC50 [1, 5]: 500 to 5000 nM | maximal fold induction [1, 5]: > 1.5 | EC50 [2, 6]: ≥ 5000 nM | Enzymatic Emax [2]: A (A>3)

N#Cc1cccc(F)c1C[C@H]1c2ccccc2C(=O)N1Cc1ccc2[nH]c(=O)oc2c1 [Compound 172, (S)-3-fluoro-2-((3-oxo-2-((2-oxo-2,3-dihydrobenzo[d]oxazol-6-yl)methyl)isoindolin-1-yl)methyl)benzonitrile]
EC50 [1, 5]: < 500 nM | maximal fold induction [1, 5]: > 1.5 | EC50 [2, 6]: < 500 nM | Enzymatic Emax [2]: B (3≥B>2)

O=C1c2ccccc2C(Cc2ncccc2Br)N1CC1CCc2[nH]nnc2C1 (centres unmarked) [Compound 332, 3-((3-bromopyridin-2-yl)methyl)-2-((4,5,6,7-tetrahydro-1H-benzo[d][1,2,3]triazol-5-yl)methyl)isoindolin-1-one]
EC50 [1, 3]: < 500 nM | maximal fold induction [1, 3]: > 1.5 | EC50 [2, 4]: 500 to 5000 nM | Enzymatic Emax [2]: A (A>3)

COc1ccc(CN2C(=O)c3ccc(C4CC4)cc3C2Cc2c(Cl)cnn2C)cn1 (centres unmarked) [Compound 623, 3-((4-chloro-1-methyl-1H-pyrazol-5-yl)methyl)-5-cyclopropyl-2-((6-methoxypyridin-3-yl)methyl)isoindolin-1-one]
EC50 [1, 3]: 500 to 5000 nM | maximal fold induction [1, 3]: > 1.5 | EC50 [2, 4]: ≥ 5000 nM | Enzymatic Emax [2]: A (A>3)

Cc1cccc2c1C(=O)N(Cc1ccc(O)cc1)C2=O [Compound 295, 2-(4-hydroxybenzyl)-4-methylisoindoline-1,3-dione]
EC50 [1, 5]: 500 to 5000 nM | maximal fold induction [1, 5]: 1.2 to 1.5 | EC50 [2, 6]: 500 to 5000 nM | Enzymatic Emax [2]: C (2≥C)

Cn1ncc(Cl)c1CC1c2ccccc2C(=O)N1C[C@@H]1C[C@@H]1c1c[nH]nn1 (relative stereo) [Compound 604, cis 2-((2-(1H-1,2,3-triazol-4-yl)cyclopropyl)methyl)-3-((4-chloro-1-methyl-1H-pyrazol-5-yl)methyl)isoindolin-1-one]
EC50 [1, 3]: 5000 to 50000 nM | maximal fold induction [1, 3]: ≤ 1.2 | EC50 [2, 4]: ≥ 5000 nM | Enzymatic Emax [2]: C (2≥C)

[2H]C([2H])([2H])Oc1ccc(CN2C(=O)c3ccccc3C2Cc2c(C)ccnc2C#N)cc1 (centres unmarked) [Compound 583, 3-((2-(4-(methoxy-d3)benzyl)-3-oxoisoindolin-1-yl)methyl)-4-methylpicolinonitrile]
EC50 [1, 3]: < 500 nM | maximal fold induction [1, 3]: > 1.5 | EC50 [2, 4]: 500 to 5000 nM | Enzymatic Emax [2]: A (A>3)

Cn1ncc(Cl)c1CC1c2ccccc2C(=O)N1Cc1cnc(N)s1 (centres unmarked) [Compound 628, 2-((2-aminothiazol-5-yl)methyl)-3-((4-chloro-1-methyl-1H-pyrazol-5-yl)methyl)isoindolin-1-one]
EC50 [1, 3]: < 500 nM | maximal fold induction [1, 3]: 1.2 to 1.5 | EC50 [2, 4]: ≥ 5000 nM | Enzymatic Emax [2]: B (3≥B>2)

CC1c2cc(CN3CCCC3)ccc2C(=O)N1Cc1ccc2[nH]c(=O)oc2c1 (centres unmarked) [Compound 96, 6-((3-methyl-1-oxo-5-(pyrrolidin-1-ylmethyl)isoindolin-2-yl)methyl)benzo[d]oxazol-2(3H)-one]
EC50 [1, 5]: 500 to 5000 nM | maximal fold induction [1, 5]: > 1.5 | EC50 [2, 6]: ≥ 5000 nM | Enzymatic Emax [2]: A (A>3)

CC1c2cc(C3CCCC3)ccc2C(=O)N1Cc1ccc2[nH]c(=O)oc2c1 (single isomer, unassigned) [Compound 304]
EC50 [1, 5]: 500 to 5000 nM | maximal fold induction [1, 5]: 1.2 to 1.5 | EC50 [2, 6]: 500 to 5000 nM | Enzymatic Emax [2]: C (2≥C)
